# ChEMBL document CHEMBL4680162, “Synthesis and pharmacological evaluation of chlorin derivatives for photodynamic therapy of cholangiocarcinoma” (Eur J Med Chem, 2020)
# Activity calls are given as the source filed them. The rule behind the calls is not given here.
# Assays:
# [1] = Drug uptake in mouse assessed as drug level in plasma at 1 mg/kg, iv measured upto 24 hrs by fluorometric method; format: ADME, organism-based; details: in vivo
# [2] = Induction of apoptosis in human QBC939 cells assessed as early apoptotic cells at 2 uM in presence of 2J/cm2 light irradiation measured after 2 hrs by annexin V-FITC and propidium iodide staining based flow cytometric analysis (reference value: 0.01 %); format: functional
# [3] = Absorption property of the compound in DMF assessed as Q band maximum absorption wavelength by UV-visible spectrophotometric method; format: physicochemical
# [4] = Emission property of compound in poly-oxyethylene castor oil and PBS assessed as Q band emission wavelength by […]; format: physicochemical; details: buffer
# [5] = Phototoxicity in BALB/c nude mouse xenografted with QBC939 cells assessed as change in spleen at 1 mg/kg, iv followed by laser light irradiation at 120 J/cm2 measured after 1 day of light irradiation by H and E staining based histological analysis; format: organism-based; details: in vivo, 24 h
# [6] = Drug uptake in human QBC939 cells at 4 uM by fluorescence spectrophotometer analysis; format: ADME, cell-based; details: qbc939, 4 µM
# QBC939 [7] = assay: Photodynamic antitumor activity against human QBC939 cells xenografted in BALB/c nude mouse assessed as increase in tumor tissue damage at 1 mg/kg, iv followed by laser light irradiation at 120 J/cm2 measured after 1 day of light irradiation by H and E staining based histological analysis; format: functional, organism-based
# [8] = Absorption property of the compound in DMSO assessed as Q band log absorption coefficient by UV-visible spectrophotometric method; format: physicochemical
# QBC939 [9] = assay: Photodynamic antitumor activity against human QBC939 cells xenografted in BALB/c nude mouse assessed as decrease in tumor weight at 1 mg/kg, iv under dark condition measured after 13 days; format: functional, organism-based; details: time 13.0 day
# [10] = Phototoxicity in BALB/c nude mouse xenografted with QBC939 cells assessed as change in liver at 1 mg/kg, iv followed by laser light irradiation at 120 J/cm2 measured after 1 day of light irradiation by H and E staining based histological analysis; format: organism-based; details: in vivo, 24 h
# [11] = Phototoxicity in BALB/c nude mouse xenografted with QBC939 cells assessed as change in kidney at 1 mg/kg, iv followed by laser light irradiation at 120 J/cm2 measured after 1 day of light irradiation by H and E staining based histological analysis; format: organism-based; details: in vivo, 24 h
# [12] = Emission property of compound in DMF assessed as Q band emission wavelength by […]; format: physicochemical
# [13] = Emission property of compound in DMSO assessed as Q band emission wavelength by […]; format: physicochemical
# [14] = Phototoxicity in ICR mouse assessed as pathological changes 1 mg/kg, iv in presence of 10 mW/cm2 light irradiation for 10 mins at 1 day after drug challenge and measured after 1 day of light irradiation by H and E staining based microscopic analysis; format: organism-based; details: in vivo, 48 h, time 2 day
# [15] = Phototoxicity against human QBC939 cells assessed as reduction in cell viability irradiated with 2 J/cm2 of 650 nanometer laser light preincubated for 24 hrs in dark and measured after 24 hrs by MTT assay; format: functional, cell-based; details: QBC939, light or radiation study
# [16] = Absorption property of compound in poly-oxyethylene castor oil and PBS assessed as Q band maximum absorption wavelength by UV-visible spectrophotometric method; format: physicochemical; details: buffer
# [17] = Drug localization in mitochondria of human QBC939 cells at 4 uM incubated for 4 hrs in dark by mito-tracker green based confocal microscopic method; format: ADME; details: qbc939, 4 h
# [18] = Induction of apoptosis in human QBC939 cells assessed as necrotic cells at 2 uM by annexin V-FITC and propidium iodide staining based flow cytometric analysis; format: functional
# [19] = Induction of apoptosis in human QBC939 cells assessed as late apoptotic cells at 2 uM by annexin V-FITC and propidium iodide staining based flow cytometric analysis; format: functional
# [20] = Induction of apoptosis in human QBC939 cells assessed as viable cells at 2 uM in presence of 2J/cm2 light irradiation measured after 2 hrs by annexin V-FITC and propidium iodide staining based flow cytometric analysis (reference value: 99.6 %); format: functional; details: QBC939, light or radiation study, read-out: Activity
# [21] = Induction of apoptosis in human QBC939 cells assessed as viable cells at 2 uM by annexin V-FITC and propidium iodide staining based flow cytometric analysis (reference value: 99.99 %); format: functional; details: read-out: Activity
# [22] = Drug localization in lysosome of human QBC939 cells at 4 uM incubated for 4 hrs in dark by lyso-tracker blue based confocal microscopic method; format: ADME, subcellular; details: qbc939, 4 h
# [23] = Absorption property of the compound in DMSO assessed as Q band maximum absorption wavelength by UV-visible spectrophotometric method; format: physicochemical
# [24] = Induction of singlet oxygen generation in DMF solution irradiated with 650 nanometer laser light in every 1 min by ESR assay; format: functional
# QBC939 [25] = assay: Photodynamic antitumour activity against human QBC939 cells xenografted in BABL/c nude mouse assessed as increase in apoptotic cells at 1 mg/kg, iv measured after 1 day of light irradiation by TUNEL assay; format: functional, organism-based
# [26] = Photodynamic antitumor activity against human QBC939 cells xenografted in BALB/c nude mouse assessed as tumor weight at 1 mg/kg, iv followed by laser light irradiation at 120 J/cm2 measured after 13 days; format: functional; details: time 13 day
# [27] = Phototoxicity in BALB/c nude mouse xenografted with QBC939 cells assessed as change in lung at 1 mg/kg, iv followed by laser light irradiation at 120 J/cm2 measured after 1 day of light irradiation by H and E staining based histological analysis; format: organism-based; details: in vivo, 24 h
# [28] = Dark toxicity in human QBC939 cells assessed as reduction in cell viability incubated under dark for 24 hrs measured after 24 hrs by MTT assay; format: cell-based; details: read-out: TC50
# [29] = Drug localization in nucleus of human QBC939 cells at 4 uM incubated for 4 hrs in dark by Hoechst 33342 based confocal microscopic method; format: ADME, subcellular; details: qbc939, 4 h
# [30] = Phototoxicity in ICR mouse assessed as tail weight at 1 mg/kg, iv followed by 10 mW/cm2 light irradiation for 10 mins at 1 day after drug challenge and measured after 1 day of light irradiation by H and E staining based microscopic analysis (reference value: 115.6 +/- 5.6 mg); format: organism-based; details: in vivo, 48 h, time 2 day
# [31] = Absorption property of compound in poly-oxyethylene castor oil and PBS assessed as Q band log absorption coefficient by UV-visible spectrophotometric method; format: physicochemical; details: buffer
# [32] = Induction of apoptosis in human QBC939 cells assessed as necrotic cells at 2 uM in presence of 2J/cm2 light irradiation measured after 24 hrs by annexin V-FITC and propidium iodide staining based flow cytometric analysis (reference value: 0.02 %); format: functional
# [33] = Induction of singlet oxygen generation in DMSO assessed as bleaching rate at 10 uM under 650 nanometer light irradiation; format: functional
# [34] = Induction of apoptosis in human QBC939 cells assessed as early apoptotic cells at 2 uM by annexin V-FITC and propidium iodide staining based flow cytometric analysis (reference value: 0.01 %); format: functional
smiles,measurement,setting,value
COC(=O)C1(C(=O)O)C2c3nc(c(-c4ccccc4)c4ccc([nH]4)c(-c4ccccc4)c4nc(c(-c5ccccc5)c5ccc([nH]5)c3-c3ccccc3)C=C4)C21 (centres undefined),Drug uptake,[1],Active
same,Activity,[2],23.2%
same,Activity,[3],656 nm
same,Activity,[4],654 nm
same,Activity,[5],Non-Toxic
same,Drug uptake,[6],Active
same,Activity,QBC939 [7],Active
same,Activity,[8],4.02
same,Activity,QBC939 [9],inactive
same,Activity,[10],Non-Toxic
same,Activity,[11],Non-Toxic
same,Activity,[12],656 nm
same,Activity,[13],652 nm
same,Activity,[14],Non-Toxic
same,IC50,[15],1360 nM
same,Activity,[16],655 nm
same,Drug uptake,[17],Active
same,Activity,[18],3.6%
same,Activity,[19],2.06%
same,viability at 2 µM,[20],51.3%
same,viability at 2 µM,[21],94.3%
same,Drug uptake,[22],Active
same,Activity,[23],650 nm
same,Activity,[24],Active
same,Activity,QBC939 [25],Active
same,Activity,[26],10%
same,Activity,[27],Non-Toxic
same,CC50 at 48 h,[28],> 8000 nM
same,Drug uptake,[29],Not Active
same,Activity,[30],116.5 mg
same,Activity,[31],4.2
same,Activity,[32],7.79%
same,Activity,[33],Active
same,Activity,[34],0.04%
